Measurements taken from patent US7198942B2, “Acetylcholine receptor subunits” (Bayer CropScience LP, priority 2000, dated 2007).

Columns and labels:
[1] = test system: Untransfected control cells (Sf9); experiment: Whole-cell recordings on untransfected Sf9 control cells; assay type: cell-based, Spodoptera frugiperda; settings: untransfected Sf9 control cells in the same experiment
Excerpt: Spodoptera frugiperda 9 (Sf9) cells were transfected simultaneously with cDNA expression plasmids which code for the modified heliothis/chicken subunit and for the chicken β2 subunit using a liposomal transfection reagent (DAC-30, Eurogentec, Belgium). A cDNA expression construct for the green fluorescent protein from Aequoria victoria was transfected simultaneously. This makes it possible simply to identify transfected cells because experience has shown that most of the cells which have taken up one of the constructs have also taken up the other ones. 24 to 48 hours after transfection, the currents through the cell membrane of the Sf9 cells were measured by whole-cell recordings. For this purpose, the potential difference across the cell membrane was kept constant at −70 mV. Substances were applied using the U-tube reversed flow technique (Fenwick 1982). […]
To check whether expression of the cDNAs which code for the modified heliothis/chicken subunit shown in SEQ ID NO: 3 and the chicken β2 subunit led to the production of functional acetylcholine receptors in the cells, whole-cell recordings were carried out by the method described above, during which the cells were stimulated with acetylcholine (1000 μM) or imidacloprid (100 μM). […] In order to quantify the results, a series of experiments was carried out with 5 measurements. […]

[2] = test system: receptors comprising unmodified Heliothis α1 subunits and chicken β2 subunits; experiment: Dual electrode voltage clamp on Xenopus oocytes expressing Heliothis α1/chicken β2 receptors; assay type: cell-based, Heliothis virescens / chicken; settings: membrane voltage −80 mV, FIG. 2C
Experimental: (§1) Xenopus oocytes were isolated and prepared as previously described (Bertrand et al. 1991). On the first day after isolation of the oocytes, in each case 10 nl of a solution with 2 ng of an appropriate cDNA expression vector were injected into the cell nuclei of the oocytes. The oocytes were kept at 19° C. in a suitable medium (BARTH solution consisting (in mM) of NaCl 88, KCl 1, NaHCO3 2.4, MgSO4 0.82, Ca(NO3)2 0.33, CaCl2 0.41, HEPES 10, pH 7.4) for 3–5 days. After this time, the electrophysiological experiments were carried out.
Electrophysiological recordings were carried out using a dual electrode voltage clamp by tried and tested methods which are well known (compare Bertrand et al. 1992). Each oocyte was placed singly in a measurement chamber and pierced by two microelectrodes. […] The membrane voltage was fixed at −80 mV using a voltage clamp amplifier (TEC-00, npi, Tamm, Germany), and the inward current flowing through the cell membrane was measured and recorded by computer. […]
(§2) In order to characterize the sensitivity of the modified receptors to acetylcholine and imidacloprid in more detail, dose-effect plots were recorded by repeating the experiment described above with different concentrations of the substance.

[3] = target: T1, receptors consisting of the chicken β2 subunit and polypeptide according to SEQ ID NO: 11 (Gallus gallus, UniProt P09482+P09484, A209V/D197E/E200T/E219T/G202V/G211A/I207L/I224P/K217F/L196S/N208E/N212V/P226L/Q195L/S215E/S231N/T222D/V205D/V210P/W199Y/Y198F/Y213R/Y230F); assay type: cell-based, Heliothis virescens / chicken; settings: Xenopus oocytes, membrane voltage −80 mV
T1 construct: expressed in transfected cells; host or cells: Xenopus oocytes (nuclear injection of cDNA expression vectors)
Experimental: as §1
(§3) Electrophysiological recordings were carried out using a dual electrode voltage clamp by tried and tested methods which are well known (compare Bertrand et al. 1992). Each oocyte was placed singly in a measurement chamber and pierced by two microelectrodes. […] The membrane voltage was fixed at −80 mV using a voltage clamp amplifier (TEC-00, npi, Tamm, Germany), and the inward current flowing through the cell membrane was measured and recorded by computer. Frog Ringer solution containing 115 mM NaCl; 2.5 mM KCl; 1.8 mM CaCl2; 10 mM HEPES; at pH 7.4 (adjusted with NaOH) flowed at a flow rate of 5–10 ml/minute through the measurement chamber. In order to test acetylcholine, imidacloprid or another active substance on these oocytes, the substance was added in the intended concentration to the frog Ringer solution and the perfusion of the measurement chamber was briefly changed over to this test solution. Acetylcholine (Fluka, Buchs, Switzerland) was stored as stock solution at −20° C. and added to the measurement solution immediately before the experiment.
(§4) In this case it is immediately evident from the occurrence of an additional inward current signal whether the receptor variant expressed in the particular oocyte can be activated by imidacloprid or not.
as §2

[4] = target: T2, receptors consisting of the chicken β2 subunit and polypeptide according to SEQ ID NO: 3 (Gallus gallus, UniProt P09482+P09484, A129E/D127N/D141T/F139N/F162Y/H132L/H137T/I144V/K145E/K171V/L133A/M147R/N169T/S157E/T161E); assay type: cell-based, Heliothis virescens / chicken; settings: Xenopus oocytes, membrane voltage −80 mV, FIG. 2A
T2 construct: expressed in transfected cells; host or cells: Xenopus oocytes (nuclear injection of cDNA expression vectors)
Experimental: as §1, §3, §4, §2

[5] = target: T3, receptors consisting of the chicken β2 subunit and polypeptide according to SEQ ID NO: 7 (Gallus gallus, UniProt P09482+P09484, INS192RGTNVVELG); assay type: cell-based, Heliothis virescens / chicken; settings: Xenopus oocytes, membrane voltage −80 mV
T3 construct: expressed in transfected cells; host or cells: Xenopus oocytes (nuclear injection of cDNA expression vectors)
Experimental: as §1, §3, §4, §2

[6] = target: T4, receptor containing polypeptide shown in SEQ ID NO: 3 and the chicken β2 subunit (Gallus gallus, UniProt P09482+P09484, A129E/D127N/D141T/F139N/F162Y/H132L/H137T/I144V/K145E/K171V/L133A/M147R/N169T/S157E/T161E); experiment: Whole-cell recordings on transfected Sf9 cells, SEQ ID NO: 3/chicken β2; assay type: cell-based, Heliothis virescens / chicken; settings: −70 mV
T4 construct: expressed in transfected cells; host or cells: Spodoptera frugiperda Sf9 cells (transient, DAC-30; GFP co-transfected as a marker)
Excerpt: Spodoptera frugiperda 9 (Sf9) cells were transfected simultaneously with cDNA expression plasmids which code for the modified heliothis/chicken subunit and for the chicken β2 subunit using a liposomal transfection reagent (DAC-30, Eurogentec, Belgium). A cDNA expression construct for the green fluorescent protein from Aequoria victoria was transfected simultaneously. This makes it possible simply to identify transfected cells because experience has shown that most of the cells which have taken up one of the constructs have also taken up the other ones. 24 to 48 hours after transfection, the currents through the cell membrane of the Sf9 cells were measured by whole-cell recordings. For this purpose, the potential difference across the cell membrane was kept constant at −70 mV. Substances were applied using the U-tube reversed flow technique (Fenwick 1982). The volume of the experimental chamber, which was continuously perfused with bath solution (3 ml/min), was less than 0.5 ml. […] The pipette solution contained (in mM): 150 KCl, 10 HEPES 10 K-EGTA (pH 7.2). The microelectrodes were produced in an electrode puller (Zeitz, Germany) from borosilicate glass blanks (external diameter 1.6 mm, Hilgenberg, Germany). The resistance of the flame-polished microelectrodes on use of the abovementioned pipette and bath solutions was between 4 and 6 MΩ. […]

[7] = target: chicken α4 subunit and the chicken β2 subunit (Gallus gallus, UniProt P09482+P09484); experiment: Whole-cell recordings on transfected Sf9 cells, chicken α4/β2; assay type: cell-based; settings: −70 mV

SMILES	response (inward current) [1]	sensitivity (ligand-induced conductance) [2]	ligand-induced conductance / sensitivity [3]	ligand-induced conductance / sensitivity [4]	ligand-induced conductance / sensitivity [5]	inward currents after stimulus ([6]; 100 μM imidacloprid, FIG. 3)	amplitude ratio (maximum amplitude on 100 μM imidacloprid divided by maximum amplitude on 1000 μM acetylcholine) ([6]; n=5 cells)	inward currents on application ([7]; 100 μM imidacloprid)	amplitude ratio (maximum amplitude on 100 μM imidacloprid divided by maximum amplitude on 1000 μM acetylcholine) ([7]; n=5 cells)
CC(=O)OCC[N+](C)(C)C [acetylcholine]	no response	–	–	–	–	–	–	–	–
O=[N+]([O-])NC1=NCCN1Cc1ccc(Cl)nc1 [imidacloprid]	no response	sensitive	only the receptors consisting of the chicken β2 subunit and polypeptides according to SEQ ID NO: 3 are sensitive to imidacloprid	sensitive	only the receptors consisting of the chicken β2 subunit and polypeptides according to SEQ ID NO: 3 are sensitive to imidacloprid	strong inward currents	0.46±0.09	either no or only very weak inward currents	0.05±0.06
